Assay results published in PubChem BioAssay AID1963964 (Molecular Pharmacology Branch, DTP, NCI, 2024).
One block for each molecule: values may come before it.

Tested on: 997726-040-R-J2-PDC tumor spheroids, viability
Assay: Anticancer human tumor 997726-040-R-J2-PDC patient-derived squamous cell lung carcinoma cell line growth inhibition [PI3K]
Conditions: spheroids with HUVEC and MSC; for viability, T/C: stronger effect = lower value
Text: Combinatorial screen of targeted agents with the PI3K inhibitors inavolisib, alpelisib, duvelisib, and copanlisib in multi-cell type tumor spheroids
A high-throughput screen of multi-cell type tumor spheroids was designed to identify active combinations of targeted small molecules and PI3K pathway inhibitors. Complex spheroids include a stromal component modeled by human endothelial cells (HUVEC) and fibroblasts modeled by human mesenchymal stem cells (MSCs). The concentration ranges selected for each drug and investigational agent were based upon clinically achievable concentrations if the clinical Cmax of the agent was known.
Compounds. The drugs and investigational agents: inavolisib (NSC800729), alpelisib (NSC765974), duvelisib (NSC772469), copanlisib (NSC816437), ipatasertib (NSC767898), afuresertib (NSC778305), talazoparib (NSC767125), sapanisertib (NSC764658), selumetinib (NSC741078), tovorafenib (DAY101, NSC766906), vemurafenib (NSC761431), ravoxertinib (NSC781343), sotorasib (NSC818433), MRTX1133 (NSC 836407), abemaciclib (NSC 768073), palbociclib (NSC758247), venetoclax (NSC 766270), SY5609 (NSC837396), enzalutamide (NSC755605), and darolutamide (NSC825331), were obtained from the National Cancer Institute (NCI) Developmental Therapeutics Program Chemical Repository. The FDA-approved anticancer drug set is available from the NCI Developmental Therapeutics Program. […] The stock solutions were prepared in dimethyl sulfoxide (DMSO, Sigma-Aldrich, St. Louis, MO, cat. D2650) at 800-fold the tested concentration and stored at -70 degrees C prior to their use. All drugs and investigational agents were tested over a range starting from a high concentration at or near the clinical Cmax and decreasing in half-log increments. If the clinical Cmax for an agent had not been determined, the highest concentration tested was 10 microM.
Cell Culture. All cells were maintained in an incubator at 37 degrees C and 5% CO2 with 95% humidity. The PDC lines were cultured according to standard operating procedures established by the NCI PDMR (https://pdmr.cancer.gov/sops/default.htm). All PDCs were thawed and cultured in Matrigel-coated flasks prepared with a working solution of 1X Ham's F-12 nutrient mix, without supplementation (Invitrogen, Waltham, MA, cat. 11765054), 100 U/mL penicillin-streptomycin (Invitrogen, cat. 15140122), and 2.5% Matrigel (Corning Inc., Corning, NY, cat. 354248) for the first three passages. The 354836-022-R-J1-PDC, 475296-252-R-J1-PDC, and 997726-040-R-J2-PDC lines were cultured in 6A media, which includes advanced DMEM/F-12 (Thermo Fisher Scientific, cat. 12634028), 10 mM HEPES (Thermo Fisher Scientific, cat. 15630080), 1X GlutaMAX supplement (Thermo Fisher Scientific, cat. 35050061), 0.1 mg/mL primocin (InvivoGen, San Diego, CA, cat. ant-pm-2), 10% defined fetal bovine serum, heat inactivated (HyClone Laboratories Inc., Logan, UT, cat. SH30070.03HI), 50% L-WRN conditioned media (ATCC, cat. CRL-3276), 1.25 mM N-Acetyl-L-cysteine (Sigma-Aldrich, cat. A9165), 10 mM nicotinamide (Sigma-Aldrich, cat. N0636), 1X B-27 supplement (Thermo Fisher Scientific, cat. 17504044), 1X N-2 supplement (Thermo Fisher Scientific, cat. 17502048), and 10 microM Y-27632 dihydrochloride (Tocris Bioscience, Bristol, United Kingdom, cat. 1254). The 624824-186-R-J2-PDC line was cultured in 6C/Colon 1B media, which includes all 6A media components plus 50 ng/mL human EGF recombinant protein (Thermo Fisher Scientific, cat. PHG0311). […]
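Note: spheroids exposed to compounds for seven days before readout.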

IC50 (curve of compound): > 10000 nM
SMILES: C#Cc1c(F)ccc2cc(O)cc(-c3ncc4c(N5CC6CCC(C5)N6)nc(OCC56CCCN5CC(F)C6)nc4c3F)c12 (configuration not stated)
viability, T/C (compound 0.0316 µM): 105% [middle of 4 runs] | viability, T/C (compound 0.1 µM): 96% [middle of 4 runs] | viability, T/C (compound 0.316 µM): 96.5% [middle of 4 runs] | viability, T/C (compound 1 µM): 96.6% [middle of 4 runs] | viability, T/C (compound 3.16 µM): 92.6% [middle of 4 runs] | viability, T/C (compound 10 µM): 77.5% [middle of 4 runs]

IC50 (curve of compound): > 10000 nM
SMILES: C[C@@H](NC(=O)c1ncnc(N)c1Cl)c1ncc(C(=O)Nc2cc(C(F)(F)F)c(Cl)cn2)s1
viability, T/C (compound 0.1 µM): 125% [middle of 4 runs] | viability, T/C (compound 0.316 µM): 117% [middle of 4 runs] | viability, T/C (compound 1 µM): 110% [middle of 4 runs] | viability, T/C (compound 3.16 µM): 105% [middle of 4 runs] | viability, T/C (compound 10 µM): 73.3% [middle of 4 runs]

IC50 (curve of compound): 92.5 nM [middle of 4 runs]
SMILES: Cn1ncc(Cl)c1-c1cc(C(=O)NC(CN)Cc2cccc(F)c2)sc1Cl (configuration not stated)
viability, T/C (compound 0.0316 µM): 84.3% [middle of 4 runs] | viability, T/C (compound 0.1 µM): 46.1% [middle of 4 runs] | viability, T/C (compound 0.316 µM): 27.1% [middle of 4 runs] | viability, T/C (compound 1 µM): 12.9% [middle of 4 runs] | viability, T/C (compound 3.16 µM): 9.41% [middle of 4 runs] | viability, T/C (compound 10 µM): 12.4% [middle of 4 runs]

IC50 (curve of first compound, second compound 0.00316 µM): 154 nM | IC50 (curve of first compound, second compound 0.01 µM): 82.4 nM | IC50 (curve of first compound, second compound 0.0316 µM): 13.8 nM | IC50 (curve of first compound, second compound 0.1 µM): < 9.49 nM | IC50 (curve of first compound, second compound 0.316 µM): < 9.49 nM | IC50 (curve of first compound, second compound 1 µM): < 9.49 nM
SMILES: Cn1cnc2c(F)c(Nc3ccc(Br)cc3Cl)c(C(=O)NOCCO)cc21 + CC(Nc1ccc2c(c1)OCCn1cc(N3C(=O)OCC3C(F)F)nc1-2)C(N)=O
viability, T/C (second compound 0.00316 µM, first compound 0.00949 µM): 70.5% | viability, T/C (second compound 0.00316 µM, first compound 0.03 µM): 65% | viability, T/C (second compound 0.00316 µM, first compound 0.0949 µM): 58.1% | viability, T/C (second compound 0.00316 µM, first compound 0.3 µM): 39.1% | viability, T/C (second compound 0.00316 µM, first compound 0.949 µM): 35.8% | viability, T/C (second compound 0.00316 µM, first compound 3 µM): 29.1% | viability, T/C (second compound 0.01 µM, first compound 0.00949 µM): 62% | viability, T/C (second compound 0.01 µM, first compound 0.03 µM): 59% | viability, T/C (second compound 0.01 µM, first compound 0.0949 µM): 47.6% | viability, T/C (second compound 0.01 µM, first compound 0.3 µM): 40.8% | viability, T/C (second compound 0.01 µM, first compound 0.949 µM): 39.2% | viability, T/C (second compound 0.01 µM, first compound 3 µM): 30.9% | viability, T/C (second compound 0.0316 µM, first compound 0.00949 µM): 49.1% | viability, T/C (second compound 0.0316 µM, first compound 0.03 µM): 50.8% | viability, T/C (second compound 0.0316 µM, first compound 0.0949 µM): 42.2% | viability, T/C (second compound 0.0316 µM, first compound 0.3 µM): 30.2% | viability, T/C (second compound 0.0316 µM, first compound 0.949 µM): 28.2% | viability, T/C (second compound 0.0316 µM, first compound 3 µM): 21.1% | viability, T/C (second compound 0.1 µM, first compound 0.00949 µM): 36.6% | viability, T/C (second compound 0.1 µM, first compound 0.03 µM): 42% | viability, T/C (second compound 0.1 µM, first compound 0.0949 µM): 33% | viability, T/C (second compound 0.1 µM, first compound 0.3 µM): 22.1% | viability, T/C (second compound 0.1 µM, first compound 0.949 µM): 21% | viability, T/C (second compound 0.1 µM, first compound 3 µM): 14% | viability, T/C (second compound 0.316 µM, first compound 0.00949 µM): 32.1% | viability, T/C (second compound 0.316 µM, first compound 0.03 µM): 27.9% | viability, T/C (second compound 0.316 µM, first compound 0.0949 µM): 23.7% | viability, T/C (second compound 0.316 µM, first compound 0.3 µM): 20.5% | viability, T/C (second compound 0.316 µM, first compound 0.949 µM): 14% | viability, T/C (second compound 0.316 µM, first compound 3 µM): 15% | viability, T/C (second compound 1 µM, first compound 0.00949 µM): 24.5% | viability, T/C (second compound 1 µM, first compound 0.03 µM): 22.4% | viability, T/C (second compound 1 µM, first compound 0.0949 µM): 21.7% | viability, T/C (second compound 1 µM, first compound 0.3 µM): 20.3% | viability, T/C (second compound 1 µM, first compound 0.949 µM): 15% | viability, T/C (second compound 1 µM, first compound 3 µM): 12.9%
